In patent US11001569B2, “6-membered heteroaromatic substituted cyanoindoline derivatives as NIK inhibitors” (Janssen Pharmaceutica NV, priority 2016, dated 2021) one finds IC50 and melting point data, which are given here for one compound.

A word on the melting point: it is the temperature of the solid-liquid transition.

The subject of data set [1] is JJN-3 (NIK translocated) multiple myeloma cells. Description: Antiproliferative activity on JJN-3 multiple myeloma cells (CellTiter-Glo). The data set is classed as cell-based, human. As to conditions: Homo sapiens, JJN-3, 96 h, JJN-3 (NIK translocated) cells, 96 hr treatment, averaged values, read-out: JJN-3 Proliferation inhibition (IC50 (nM)). In outline:
(§1)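 Cells plated at 15000 (JJN3) or 20000 (KMS12BM) per well and treated 96 h at 37° C, 5% CO2, final DMSO 0.3%, 9-point 1:3 dilutions. Viability by CellTiter-Glo luminescence; time-zero blank subtracted, growth expressed as percent of untreated control.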

The test system of data set [2] is P-IKKα levels in L363 (NIK translocated multiple myeloma) cells. Description: Effect of compounds on P-IKKα levels in L363 cells (Mesoscale sandwich immuno-assay). The format is cell-based, human. The note with it: Homo sapiens, L-363, 2 h, 2 hr treatment, averaged values, read-out: Inhibition of pIKKα_L-363 (IC50 (nM)). In outline:
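BAFF-stimulated (1 μg/ml stock) L363 cells preincubated 24 hr at 37° C, then treated 2 hr with compound (final 1% DMSO, 8-point 1:3 dilutions). Lysate P-IKKα measured by Mesoscale sandwich immunoassay; IC50 from sigmoidal fit of % inhibition versus log concentration.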

In data set [3] the test system is KMS12-BM (NIK WT) multiple myeloma cells. In words: Antiproliferative activity on KMS12-BM multiple myeloma cells (CellTiter-Glo). The data set is classed as cell-based, human. As to conditions: Homo sapiens, KMS-12-BM, 96 h, 96 hr treatment, averaged values, read-out: KMS-12 Proliferation inhibition (IC50 (nM)). In outline:
as §1
For orientation: Cellular ATP, detected with luciferase, serves as a proxy for viable cell number.

The target in data set [4] is recombinant human NF-kappaB-inducing Kinase (NIK/MAP3K14) (Homo sapiens, UniProt Q99558). Description: Inhibition of auto-phosphorylation of recombinant human NIK/MAP3K14 activity (AlphaScreen). The format is biochemical. The note with it: 25 microM ATP, averaged over all measurements on all batches. In general terms: Alpha assays give light when donor and acceptor beads are brought close together.
Chain of recombinant human NF-kappaB-inducing Kinase (NIK/MAP3K14) (Q99558 whole entry): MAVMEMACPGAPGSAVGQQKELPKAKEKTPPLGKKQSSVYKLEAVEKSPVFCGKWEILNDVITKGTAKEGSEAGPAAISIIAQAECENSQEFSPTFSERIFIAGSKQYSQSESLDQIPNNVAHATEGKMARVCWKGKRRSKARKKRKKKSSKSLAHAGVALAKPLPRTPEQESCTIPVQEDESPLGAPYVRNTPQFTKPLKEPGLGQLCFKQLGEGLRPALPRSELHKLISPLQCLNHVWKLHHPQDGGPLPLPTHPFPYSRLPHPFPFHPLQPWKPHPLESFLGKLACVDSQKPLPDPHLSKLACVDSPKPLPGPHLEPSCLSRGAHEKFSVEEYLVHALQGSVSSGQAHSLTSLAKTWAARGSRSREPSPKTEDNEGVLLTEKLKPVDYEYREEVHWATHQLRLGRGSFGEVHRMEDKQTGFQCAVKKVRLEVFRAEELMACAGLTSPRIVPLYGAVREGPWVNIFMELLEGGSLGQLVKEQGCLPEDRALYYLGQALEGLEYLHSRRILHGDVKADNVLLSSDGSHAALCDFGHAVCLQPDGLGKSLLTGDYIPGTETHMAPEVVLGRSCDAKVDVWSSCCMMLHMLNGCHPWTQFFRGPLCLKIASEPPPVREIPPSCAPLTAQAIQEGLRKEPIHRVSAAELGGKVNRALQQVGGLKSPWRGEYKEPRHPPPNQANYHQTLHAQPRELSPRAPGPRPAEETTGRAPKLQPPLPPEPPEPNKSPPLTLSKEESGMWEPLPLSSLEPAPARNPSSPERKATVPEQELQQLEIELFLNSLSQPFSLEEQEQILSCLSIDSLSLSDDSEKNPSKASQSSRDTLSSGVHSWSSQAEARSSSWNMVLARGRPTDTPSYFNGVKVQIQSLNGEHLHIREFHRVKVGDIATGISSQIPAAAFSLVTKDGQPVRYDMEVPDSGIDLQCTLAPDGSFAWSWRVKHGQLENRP

`Cc1nc(/C=C/C(=O)N(C)C)ccc1Nc1nccc(-c2cc(C#N)c3c(c2)[C@@](C)(CO)CN3)n1` [Compound 73] gave a melting point of 231 °C. In addition, in data set [1], the IC50 was 144 nM. The IC50 in data set [2] is approximately 13 nM. Also, the IC50 in data set [3] was approximately 234 nM. Moreover, the IC50 in data set [4] came to 1.6 nM.
